According to patent publication EP0249401A1, “Antianemic agent” (YAMANOUCHI PHARMACEUTICAL CO. LTD., priority 1986, dated 1987):

Experiment: Acute toxicity (LD50) on intraperitoneal injection into mice
Settings: mouse, in vivo, ip

Compound: CC(C)OC(=O)CNC(=O)[C@H](CS)NC(=O)CC[C@H](N)C(=O)O [isopropyl ester, isopropyl y-L-glutamyl-L-cysteinylglycinate]
- LD50: ~5300 mg/kg
